In paper PMC6421522, “Designing Dual Inhibitors of Anaplastic Lymphoma Kinase (ALK) and Bromodomain-4 (BRD4) by Tuning Kinase Selectivity” (Journal of Medicinal Chemistry, 2019):

Columns and labels:
Test in all cases: KINOMEscan scanEDGE
Assay type in all cases: binding
Settings in all cases: read-out: % Control (1µM)
[1] = target: T1, ABL1(E255K)-phosphorylated (Homo sapiens, UniProt P00519, E255K)
T1 construct: purchased DiscoveRx KINOMEscan (scanEDGE); Thermo Fisher SelectScreen (Z'-LYTE) for PLK-1
Description: (§1) Compound X was assayed at 1 μM in the DiscoveRx KINOMEscan (scanEDGE) assay platform. The results for single-concentration binding interactions are reported as “%Ctrl” (DMSO = 100%Ctrl), where lower numbers indicate stronger hits.

[2] = target: T2, ABL1(T315I)-phosphorylated (Homo sapiens, UniProt P00519, T315I)
T2 construct: purchased DiscoveRx KINOMEscan (scanEDGE); Thermo Fisher SelectScreen (Z'-LYTE) for PLK-1
Description: as §1

ABL1-nonphosphorylated = target: T3, ABL1-nonphosphorylated (Homo sapiens, UniProt P00519)
T3 construct: purchased DiscoveRx KINOMEscan (scanEDGE); Thermo Fisher SelectScreen (Z'-LYTE) for PLK-1
Description: as §1

BMPR2 = target: T4, BMPR2 (Homo sapiens, UniProt Q13873)
T4 construct: purchased DiscoveRx KINOMEscan (scanEDGE); Thermo Fisher SelectScreen (Z'-LYTE) for PLK-1
T4 sequence (Q13873 27-1038): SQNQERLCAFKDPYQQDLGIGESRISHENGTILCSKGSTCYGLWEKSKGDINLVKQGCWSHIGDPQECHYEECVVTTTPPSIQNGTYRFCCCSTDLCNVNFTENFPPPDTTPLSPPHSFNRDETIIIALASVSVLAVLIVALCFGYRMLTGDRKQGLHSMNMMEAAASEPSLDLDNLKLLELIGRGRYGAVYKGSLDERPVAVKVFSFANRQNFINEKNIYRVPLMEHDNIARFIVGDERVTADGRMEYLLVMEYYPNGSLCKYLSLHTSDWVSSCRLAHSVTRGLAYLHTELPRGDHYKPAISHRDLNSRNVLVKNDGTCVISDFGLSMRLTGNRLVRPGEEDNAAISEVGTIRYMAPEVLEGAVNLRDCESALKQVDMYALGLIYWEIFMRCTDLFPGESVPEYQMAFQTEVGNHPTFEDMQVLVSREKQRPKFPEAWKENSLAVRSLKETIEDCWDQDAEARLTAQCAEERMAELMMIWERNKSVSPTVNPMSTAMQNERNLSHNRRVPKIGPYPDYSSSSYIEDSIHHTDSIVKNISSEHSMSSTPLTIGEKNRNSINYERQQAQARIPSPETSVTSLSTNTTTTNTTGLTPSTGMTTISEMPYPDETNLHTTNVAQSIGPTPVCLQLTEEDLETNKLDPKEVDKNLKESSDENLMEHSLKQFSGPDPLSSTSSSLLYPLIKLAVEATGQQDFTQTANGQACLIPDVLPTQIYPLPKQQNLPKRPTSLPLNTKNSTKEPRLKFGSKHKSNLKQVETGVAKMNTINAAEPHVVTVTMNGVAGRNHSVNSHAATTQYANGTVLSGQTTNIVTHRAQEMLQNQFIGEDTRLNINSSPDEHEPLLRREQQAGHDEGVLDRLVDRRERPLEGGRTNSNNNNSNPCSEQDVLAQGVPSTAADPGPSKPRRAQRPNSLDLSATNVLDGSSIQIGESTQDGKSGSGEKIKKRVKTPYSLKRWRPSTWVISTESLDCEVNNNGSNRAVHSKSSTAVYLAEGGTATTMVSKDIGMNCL
Description: as §1

BRAF = target: T5, BRAF (Homo sapiens, UniProt P15056)
T5 construct: purchased DiscoveRx KINOMEscan (scanEDGE); Thermo Fisher SelectScreen (Z'-LYTE) for PLK-1
Description: as §1

BRAF(V600E) = target: T6, BRAF(V600E) (Homo sapiens, UniProt P15056, V600E)
T6 construct: purchased DiscoveRx KINOMEscan (scanEDGE); Thermo Fisher SelectScreen (Z'-LYTE) for PLK-1
Description: as §1

CDK2 = target: T7, CDK2 (Homo sapiens, UniProt P24941)
T7 construct: purchased DiscoveRx KINOMEscan (scanEDGE); Thermo Fisher SelectScreen (Z'-LYTE) for PLK-1
Description: as §1

CDK9 = target: T8, CDK9 (Homo sapiens, UniProt P50750)
T8 construct: purchased DiscoveRx KINOMEscan (scanEDGE); Thermo Fisher SelectScreen (Z'-LYTE) for PLK-1
Description: as §1

CHEK1 = target: T9, CHEK1 (Homo sapiens, UniProt O14757)
T9 construct: purchased DiscoveRx KINOMEscan (scanEDGE); Thermo Fisher SelectScreen (Z'-LYTE) for PLK-1
Description: as §1

CSF1R = target: T10, CSF1R (Homo sapiens, UniProt P07333)
T10 construct: purchased DiscoveRx KINOMEscan (scanEDGE); Thermo Fisher SelectScreen (Z'-LYTE) for PLK-1
Description: as §1

DCAMKL1 = target: T11, DCAMKL1 (Homo sapiens, UniProt O15075)
T11 construct: purchased DiscoveRx KINOMEscan (scanEDGE); Thermo Fisher SelectScreen (Z'-LYTE) for PLK-1
T11 sequence (O15075 whole entry): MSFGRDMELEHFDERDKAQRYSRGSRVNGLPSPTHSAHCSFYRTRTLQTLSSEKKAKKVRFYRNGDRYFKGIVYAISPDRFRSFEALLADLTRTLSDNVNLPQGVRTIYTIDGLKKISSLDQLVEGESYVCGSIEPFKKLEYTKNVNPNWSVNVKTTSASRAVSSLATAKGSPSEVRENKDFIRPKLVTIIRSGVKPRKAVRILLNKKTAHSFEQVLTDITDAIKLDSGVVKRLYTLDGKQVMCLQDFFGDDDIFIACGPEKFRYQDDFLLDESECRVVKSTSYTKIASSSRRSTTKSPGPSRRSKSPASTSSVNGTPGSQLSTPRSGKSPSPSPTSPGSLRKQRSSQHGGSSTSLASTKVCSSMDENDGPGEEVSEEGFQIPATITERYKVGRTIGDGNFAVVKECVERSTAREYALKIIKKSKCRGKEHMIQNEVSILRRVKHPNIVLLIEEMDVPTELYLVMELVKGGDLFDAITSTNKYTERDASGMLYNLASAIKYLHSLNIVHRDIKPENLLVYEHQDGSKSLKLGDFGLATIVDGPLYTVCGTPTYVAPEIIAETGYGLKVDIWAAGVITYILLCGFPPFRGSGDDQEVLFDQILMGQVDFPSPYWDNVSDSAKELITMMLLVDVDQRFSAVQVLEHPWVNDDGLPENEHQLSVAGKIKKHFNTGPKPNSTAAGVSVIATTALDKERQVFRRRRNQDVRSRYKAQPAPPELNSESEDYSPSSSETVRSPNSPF
Description: as §1

EGFR = target: T12, EGFR (Homo sapiens, UniProt P00533)
T12 construct: purchased DiscoveRx KINOMEscan (scanEDGE); Thermo Fisher SelectScreen (Z'-LYTE) for PLK-1
T12 sequence (P00533 25-1210): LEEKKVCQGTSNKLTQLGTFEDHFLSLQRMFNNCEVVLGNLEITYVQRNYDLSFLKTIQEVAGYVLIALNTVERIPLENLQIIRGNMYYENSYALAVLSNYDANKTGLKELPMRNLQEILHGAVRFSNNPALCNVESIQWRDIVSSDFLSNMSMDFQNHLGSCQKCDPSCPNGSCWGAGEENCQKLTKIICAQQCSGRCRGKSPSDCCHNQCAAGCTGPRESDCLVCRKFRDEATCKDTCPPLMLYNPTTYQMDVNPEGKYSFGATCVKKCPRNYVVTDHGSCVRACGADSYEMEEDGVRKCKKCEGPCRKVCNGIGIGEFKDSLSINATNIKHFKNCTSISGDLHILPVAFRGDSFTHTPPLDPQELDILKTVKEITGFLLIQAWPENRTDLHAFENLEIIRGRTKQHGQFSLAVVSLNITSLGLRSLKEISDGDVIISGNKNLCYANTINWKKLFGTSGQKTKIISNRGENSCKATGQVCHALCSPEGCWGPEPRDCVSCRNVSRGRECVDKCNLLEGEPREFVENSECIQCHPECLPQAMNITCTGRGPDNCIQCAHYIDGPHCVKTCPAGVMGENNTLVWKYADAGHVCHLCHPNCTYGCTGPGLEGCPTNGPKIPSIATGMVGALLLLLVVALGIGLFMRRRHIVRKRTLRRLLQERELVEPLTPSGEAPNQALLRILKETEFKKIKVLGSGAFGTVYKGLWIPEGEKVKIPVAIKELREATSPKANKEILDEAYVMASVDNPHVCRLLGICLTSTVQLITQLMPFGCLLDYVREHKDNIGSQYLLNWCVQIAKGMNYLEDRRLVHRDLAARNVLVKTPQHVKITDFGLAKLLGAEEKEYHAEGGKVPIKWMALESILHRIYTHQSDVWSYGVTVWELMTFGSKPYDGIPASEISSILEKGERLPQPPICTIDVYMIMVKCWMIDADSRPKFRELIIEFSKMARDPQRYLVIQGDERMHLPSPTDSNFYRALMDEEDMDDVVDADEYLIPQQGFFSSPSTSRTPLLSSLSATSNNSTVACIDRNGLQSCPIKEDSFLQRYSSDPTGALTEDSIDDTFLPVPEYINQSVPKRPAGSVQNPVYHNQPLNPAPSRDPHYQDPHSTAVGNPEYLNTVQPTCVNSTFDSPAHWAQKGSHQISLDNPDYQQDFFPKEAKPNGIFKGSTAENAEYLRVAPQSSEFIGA
Description: as §1

FGFR2 = target: T13, FGFR2 (Homo sapiens, UniProt P21802)
T13 construct: purchased DiscoveRx KINOMEscan (scanEDGE); Thermo Fisher SelectScreen (Z'-LYTE) for PLK-1
Description: as §1

FLT3 = target: T14, FLT3 (Homo sapiens, UniProt P36888)
T14 construct: purchased DiscoveRx KINOMEscan (scanEDGE); Thermo Fisher SelectScreen (Z'-LYTE) for PLK-1
Description: as §1

IGF1R = target: T15, IGF1R (Homo sapiens, UniProt P08069)
T15 construct: purchased DiscoveRx KINOMEscan (scanEDGE); Thermo Fisher SelectScreen (Z'-LYTE) for PLK-1
Description: as §1

IKK-alpha = target: T16, IKK-alpha (Homo sapiens, UniProt O15111)
T16 construct: purchased DiscoveRx KINOMEscan (scanEDGE); Thermo Fisher SelectScreen (Z'-LYTE) for PLK-1
Description: as §1

[3] = target: T17, JAK2(JH1domain-catalytic) (Homo sapiens, UniProt O60674)
T17 construct: JAK2(JH1domain-catalytic); purchased DiscoveRx KINOMEscan (scanEDGE); Thermo Fisher SelectScreen (Z'-LYTE) for PLK-1
Description: as §1

[4] = target: T18, JAK3(JH1domain-catalytic) (Homo sapiens, UniProt P52333)
T18 construct: JAK3(JH1domain-catalytic); purchased DiscoveRx KINOMEscan (scanEDGE); Thermo Fisher SelectScreen (Z'-LYTE) for PLK-1
Description: as §1

JNK2 = target: T19, JNK2 (Homo sapiens, UniProt P45984)
T19 construct: purchased DiscoveRx (DiscoverX)
Description: as §1

MAP3K4 = target: T20, MAP3K4 (Homo sapiens, UniProt Q9Y6R4)
T20 construct: purchased DiscoveRx KINOMEscan (scanEDGE); Thermo Fisher SelectScreen (Z'-LYTE) for PLK-1
Description: as §1

MARK3 = target: T21, MARK3 (Homo sapiens, UniProt P27448)
T21 construct: purchased DiscoveRx KINOMEscan (scanEDGE); Thermo Fisher SelectScreen (Z'-LYTE) for PLK-1
Description: as §1

MEK1 = target: T22, MEK1 (Homo sapiens, UniProt Q02750)
T22 construct: purchased DiscoveRx KINOMEscan (scanEDGE); Thermo Fisher SelectScreen (Z'-LYTE) for PLK-1
T22 sequence (Q02750 whole entry): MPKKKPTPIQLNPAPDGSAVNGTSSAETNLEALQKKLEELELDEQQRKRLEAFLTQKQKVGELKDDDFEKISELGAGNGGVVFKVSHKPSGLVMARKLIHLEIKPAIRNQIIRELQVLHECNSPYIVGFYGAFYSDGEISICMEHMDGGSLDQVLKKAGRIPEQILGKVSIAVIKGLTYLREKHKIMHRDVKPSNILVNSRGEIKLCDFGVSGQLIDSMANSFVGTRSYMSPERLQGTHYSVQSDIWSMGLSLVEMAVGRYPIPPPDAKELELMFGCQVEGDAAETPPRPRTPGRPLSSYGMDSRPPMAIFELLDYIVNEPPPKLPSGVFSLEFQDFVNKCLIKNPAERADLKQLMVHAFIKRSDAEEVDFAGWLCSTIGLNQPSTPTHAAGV
Description: as §1

MEK2 = target: T23, MEK2 (Homo sapiens, UniProt P36507)
T23 construct: purchased DiscoveRx KINOMEscan (scanEDGE); Thermo Fisher SelectScreen (Z'-LYTE) for PLK-1
Description: as §1

MET = target: T24, MET (Homo sapiens, UniProt P08581)
T24 construct: purchased DiscoveRx KINOMEscan (scanEDGE); Thermo Fisher SelectScreen (Z'-LYTE) for PLK-1
T24 sequence (P08581 25-1390): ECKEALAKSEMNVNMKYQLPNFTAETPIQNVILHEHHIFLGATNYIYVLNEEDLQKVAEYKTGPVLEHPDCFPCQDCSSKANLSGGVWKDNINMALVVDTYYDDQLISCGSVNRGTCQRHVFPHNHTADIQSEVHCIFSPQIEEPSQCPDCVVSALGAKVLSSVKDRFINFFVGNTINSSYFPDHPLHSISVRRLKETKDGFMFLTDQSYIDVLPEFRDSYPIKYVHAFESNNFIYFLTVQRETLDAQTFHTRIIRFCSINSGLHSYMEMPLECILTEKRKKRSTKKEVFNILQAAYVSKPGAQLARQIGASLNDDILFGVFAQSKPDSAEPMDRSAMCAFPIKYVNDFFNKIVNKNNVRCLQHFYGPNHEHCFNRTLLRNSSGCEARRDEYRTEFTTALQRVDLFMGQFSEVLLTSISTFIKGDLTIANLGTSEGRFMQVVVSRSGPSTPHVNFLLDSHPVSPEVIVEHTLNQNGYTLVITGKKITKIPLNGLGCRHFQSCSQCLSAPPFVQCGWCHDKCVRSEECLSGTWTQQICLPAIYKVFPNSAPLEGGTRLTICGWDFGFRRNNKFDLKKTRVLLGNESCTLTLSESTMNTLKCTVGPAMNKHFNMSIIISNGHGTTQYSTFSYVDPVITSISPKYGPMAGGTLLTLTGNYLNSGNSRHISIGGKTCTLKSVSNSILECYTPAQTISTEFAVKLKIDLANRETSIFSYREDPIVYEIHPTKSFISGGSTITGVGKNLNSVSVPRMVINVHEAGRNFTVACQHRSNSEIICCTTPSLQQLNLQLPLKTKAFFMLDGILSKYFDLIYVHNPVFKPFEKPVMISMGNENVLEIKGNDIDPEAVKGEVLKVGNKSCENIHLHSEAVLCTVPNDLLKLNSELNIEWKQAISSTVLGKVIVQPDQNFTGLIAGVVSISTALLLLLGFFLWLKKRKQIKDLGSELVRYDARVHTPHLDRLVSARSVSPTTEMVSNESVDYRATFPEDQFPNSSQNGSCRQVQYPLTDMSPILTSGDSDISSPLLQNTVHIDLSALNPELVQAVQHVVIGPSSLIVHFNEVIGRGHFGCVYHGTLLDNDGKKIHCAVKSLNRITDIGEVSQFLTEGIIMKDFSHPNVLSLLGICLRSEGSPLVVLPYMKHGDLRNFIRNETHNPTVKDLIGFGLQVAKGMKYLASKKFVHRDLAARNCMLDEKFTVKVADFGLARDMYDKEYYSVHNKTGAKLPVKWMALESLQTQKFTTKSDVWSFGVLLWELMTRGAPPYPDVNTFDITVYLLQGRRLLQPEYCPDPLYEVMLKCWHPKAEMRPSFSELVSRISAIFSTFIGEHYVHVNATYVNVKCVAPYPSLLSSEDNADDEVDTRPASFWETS
Description: as §1

MKNK2 = target: T25, MKNK2 (Homo sapiens, UniProt Q9HBH9)
T25 construct: purchased DiscoveRx KINOMEscan (scanEDGE); Thermo Fisher SelectScreen (Z'-LYTE) for PLK-1
Description: as §1

PAK2 = target: T26, PAK2 (Homo sapiens, UniProt Q13177)
T26 construct: purchased DiscoveRx KINOMEscan (scanEDGE); Thermo Fisher SelectScreen (Z'-LYTE) for PLK-1
Description: as §1

PAK4 = target: T27, PAK4 (Homo sapiens, UniProt O96013)
T27 construct: purchased DiscoveRx KINOMEscan (scanEDGE); Thermo Fisher SelectScreen (Z'-LYTE) for PLK-1
Description: as §1

PDGFRA = target: T28, PDGFRA (Homo sapiens, UniProt P16234)
T28 construct: purchased DiscoveRx KINOMEscan (scanEDGE); Thermo Fisher SelectScreen (Z'-LYTE) for PLK-1
Description: as §1

PIK3CA = target: T29, PIK3CA (Homo sapiens, UniProt P42336)
T29 construct: purchased DiscoveRx KINOMEscan (scanEDGE); Thermo Fisher SelectScreen (Z'-LYTE) for PLK-1
Description: as §1

PIM1 = target: T30, PIM1 (Homo sapiens, UniProt P11309)
T30 construct: purchased DiscoveRx KINOMEscan (scanEDGE); Thermo Fisher SelectScreen (Z'-LYTE) for PLK-1
Description: as §1

PIM2 = target: T31, PIM2 (Homo sapiens, UniProt Q9P1W9)
T31 construct: purchased DiscoveRx KINOMEscan (scanEDGE); Thermo Fisher SelectScreen (Z'-LYTE) for PLK-1
Description: as §1

PIM3 = target: T32, PIM3 (Homo sapiens, UniProt Q86V86)
T32 construct: purchased DiscoveRx KINOMEscan (scanEDGE); Thermo Fisher SelectScreen (Z'-LYTE) for PLK-1
Description: as §1

PRKCE = target: T33, PRKCE (Homo sapiens, UniProt Q02156)
T33 construct: purchased DiscoveRx KINOMEscan (scanEDGE); Thermo Fisher SelectScreen (Z'-LYTE) for PLK-1
Description: as §1

RIOK2 = target: T34, RIOK2 (Homo sapiens, UniProt Q9BVS4)
T34 construct: purchased DiscoveRx KINOMEscan (scanEDGE); Thermo Fisher SelectScreen (Z'-LYTE) for PLK-1
Description: as §1

[5] = target: T35, RSK2(Kin.Dom.1-N-terminal) (Homo sapiens, UniProt P51812)
T35 construct: RSK2(Kin.Dom.1-N-terminal); purchased DiscoveRx KINOMEscan (scanEDGE); Thermo Fisher SelectScreen (Z'-LYTE) for PLK-1
Description: as §1

SRPK3 = target: T36, SRPK3 (Homo sapiens, UniProt Q9UPE1)
T36 construct: purchased DiscoveRx KINOMEscan (scanEDGE); Thermo Fisher SelectScreen (Z'-LYTE) for PLK-1
Description: as §1

TIE2 = target: T37, TIE2 (Homo sapiens, UniProt Q02763)
T37 construct: purchased DiscoveRx KINOMEscan (scanEDGE); Thermo Fisher SelectScreen (Z'-LYTE) for PLK-1
Description: as §1

[6] = target: T38, TYK2(JH1domain-catalytic) (Homo sapiens, UniProt P29597)
T38 construct: TYK2(JH1domain-catalytic); purchased DiscoveRx KINOMEscan (scanEDGE); Thermo Fisher SelectScreen (Z'-LYTE) for PLK-1
T38 sequence (P29597 897-1176 limits assumed): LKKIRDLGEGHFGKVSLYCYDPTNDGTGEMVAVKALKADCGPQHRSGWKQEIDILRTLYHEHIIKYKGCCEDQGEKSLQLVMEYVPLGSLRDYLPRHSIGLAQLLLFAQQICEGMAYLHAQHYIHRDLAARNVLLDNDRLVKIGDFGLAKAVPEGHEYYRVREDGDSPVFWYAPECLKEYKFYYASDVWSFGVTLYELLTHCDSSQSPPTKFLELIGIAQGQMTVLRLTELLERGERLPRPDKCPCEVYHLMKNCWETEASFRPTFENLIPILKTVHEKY
Description: as §1

ULK2 = target: T39, ULK2 (Homo sapiens, UniProt Q8IYT8)
T39 construct: purchased DiscoveRx (DiscoverX)
Description: as §1

## CCOc1cc(C2CCN(C)CC2)ccc1Nc1ncc2c(n1)N(Cc1cc(C)cs1)[C@H](CC)C(=O)N2C [16k, (R)-2-((2-Ethoxy-4-(1-methylpiperidin-4-yl)phenyl)amino)-7-ethyl-5-methyl-8-((4-methylthiophen-2-yl)methyl)-7,8-dihydropteridin-6(5H)-one]
[1]
  remaining binding at 1 µM: 100%
[2]
  remaining binding at 1 µM: 71%
ABL1-nonphosphorylated
  remaining binding at 1 µM: 84%
BMPR2
  remaining binding at 1 µM: 100%
BRAF
  remaining binding at 1 µM: 100%
BRAF(V600E)
  remaining binding at 1 µM: 98%
CDK2
  remaining binding at 1 µM: 100%
CDK9
  remaining binding at 1 µM: 100%
CHEK1
  remaining binding at 1 µM: 100%
CSF1R
  remaining binding at 1 µM: 100%
DCAMKL1
  remaining binding at 1 µM: 100%
EGFR
  remaining binding at 1 µM: 86%
FGFR2
  remaining binding at 1 µM: 100%
FLT3
  remaining binding at 1 µM: 100%
IGF1R
  remaining binding at 1 µM: 77%
IKK-alpha
  remaining binding at 1 µM: 97%
[3]
  remaining binding at 1 µM: 83%
[4]
  remaining binding at 1 µM: 100%
JNK2
  remaining binding at 1 µM: 44%
MAP3K4
  remaining binding at 1 µM: 92%
MARK3
  remaining binding at 1 µM: 100%
MEK1
  remaining binding at 1 µM: 100%
MEK2
  remaining binding at 1 µM: 100%
MET
  remaining binding at 1 µM: 94%
MKNK2
  remaining binding at 1 µM: 60%
PAK2
  remaining binding at 1 µM: 100%
PAK4
  remaining binding at 1 µM: 100%
PDGFRA
  remaining binding at 1 µM: 96%
PIK3CA
  remaining binding at 1 µM: 96%
PIM1
  remaining binding at 1 µM: 97%
PIM2
  remaining binding at 1 µM: 86%
PIM3
  remaining binding at 1 µM: 100%
PRKCE
  remaining binding at 1 µM: 100%
RIOK2
  remaining binding at 1 µM: 74%
[5]
  remaining binding at 1 µM: 59%
SRPK3
  remaining binding at 1 µM: 100%
TIE2
  remaining binding at 1 µM: 99%
[6]
  remaining binding at 1 µM: 100%
ULK2
  remaining binding at 1 µM: 64%
